This data set in a line: gradient 5% acetonitrile 3 min, to 50% in 2 min, to 85% in 15 min, held 3 min, 100 µL/min. To be noted: column: Zorbax Extend-C18 2.1 x 50 mm; eluents: water / acetonitrile, 0.1% formic acid. In short, it runs like this: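 Retention time was recorded from adduct peaks, which were picked computationally and each inspected manually. Pure standards ran in mixtures of ~100 molecules on HPLC coupled to a quadrupole time-of-flight mass spectrometer, in positive and negative ionization mode, through a Zorbax Extend-C18 column (2.1 × 50 mm, 1.8 μm) at 100 μL/min. Eluents were water and acetonitrile, each with 0.1% formic acid.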
The compound `CN1C(=O)c2cccnc2Sc2cc(NC(=O)COc3ccccc3)ccc21` had an RP-LC retention time of 813 s.

`CCCn1ncc(N2CCC(C(=O)NCc3cccs3)CC2)cc1=O` displayed an RP-LC retention time of 686 s.

Consider `CCc1nc(-c2cc(S(=O)(=O)N3CCC(C(=O)NCc4ccc(C)o4)CC3)c(C)s2)no1`, for which the RP-LC retention time stood at 969 s.

Compound `CN(C(=O)Cn1nc(Cc2ccncc2)c2ccccc2c1=O)C1CCCCC1` displayed an RP-LC retention time of 640 s.

With `C=Cc1ccc(Cn2c(C)c(CNCCc3ccco3)c(C(=O)O)c2C)cc1`, the RP-LC retention time was found to be 755 s.

Consider `CCc1n[nH]c(CC2CCN(C(=O)C3(c4ccccc4)CC3)CC2)n1`, for which the RP-LC retention time is 608 s.

On to `CCc1ccc(NC(=O)C2CCN(S(=O)(=O)c3ccc4c(c3)NC(=O)C(C)O4)CC2)cc1` (centres undefined), for which the RP-LC retention time was 927 s.

As for `CCc1nc2cc(-c3noc(-c4ccc(C#N)cc4)n3)ccc2o1`, the RP-LC retention time was 1050 s.

`CSc1ccc(N2C(C)=NS(=O)(=O)c3cccnc32)cc1` came in with an RP-LC retention time of 811 s.

The compound `COc1ccccc1NC(=O)c1c(O)c2cccnc2n(-c2cccc(F)c2)c1=O` had an RP-LC retention time of 1210 s.

`CN1C(=O)c2cccnc2Sc2cc(NC(=O)Cc3ccc(F)cc3)ccc21` came in with an RP-LC retention time of 834 s.

With `CS(=O)(=O)c1ccc([C@@H](O)[C@@H](CF)NC(=O)C(Cl)Cl)cc1`, the RP-LC retention time is 723 s.

With `CC1=C(c2ccc(F)cc2)S(=O)(=O)N=C1N1CCCN(C(=O)CC(C)(C)C)CC1`, the RP-LC retention time was 856 s.

Consider `CCc1ccc(N2C(=O)CN(CCc3ccccc3F)[C@H]3CS(=O)(=O)C[C@H]32)cc1`, for which the RP-LC retention time came out at 904 s.

On to `CC(C)n1c(CCNC(=O)Cc2ccc(F)cc2)nc2cccnc21`, for which the RP-LC retention time turned out to be 672 s.

The compound `O=C(NCc1ccc2c(c1)OCO2)C1CCCN(c2nccn3nc(-c4ccccc4Cl)cc23)C1` (centres undefined) showed an RP-LC retention time of 895 s.

Compound `O=C1CCc2cc(NC(=O)c3n[nH]c4ccccc34)ccc2N1` registered an RP-LC retention time of 633 s.

Compound `Cc1ccc(-c2cc3c4nnc(SCC(=O)Nc5cccc(Cl)c5C)n4ccn3n2)cc1C` came in with an RP-LC retention time of 1060 s.

As for `CN(C)C(=O)C1CCc2sc(C(=O)N3CCOCC3)cc2C1` (centres undefined), the RP-LC retention time is 614 s.

In the case of `COCCN1CCn2cc(S(=O)(=O)NCc3ccc(F)cc3Cl)cc2C1=O`, the RP-LC retention time was found to be 735 s.

Compound `Cc1ccccc1-c1noc(C2CC(=O)N(c3ccc4c(c3)OCO4)C2)n1` (centres undefined) gave an RP-LC retention time of 718 s.

For `Cc1ccc(-c2nc(Nc3ccccc3F)sc2CC(=O)O)cc1`, the RP-LC retention time turned out to be 960 s.

Compound `Cc1csc(-c2cc(S(=O)(=O)NCCN3CCCCC3C)cn2CC(=O)N2CCCCC2)n1` (centres undefined) registered an RP-LC retention time of 673 s.

`COc1ccc(Cl)cc1NC(=O)C1CCN(S(=O)(=O)c2cc(-c3noc(C)n3)cs2)CC1` registered an RP-LC retention time of 1050 s.

The compound `COc1cccc(S(=O)(=O)NCc2cccnc2-c2cccc(C)c2)c1` registered an RP-LC retention time of 718 s.

Compound `Cc1cc(C)c(S(=O)(=O)N2CCc3nc[nH]c3C2)cc1C` showed an RP-LC retention time of 643 s.

`CCOC(=O)c1cc(C)nc2c1c(=O)n(Cc1cccc(C(F)(F)F)c1)c(=O)n2C` returned an RP-LC retention time of 1150 s.

Regarding `Cc1cc(-c2nnc(SCC(N)=O)o2)c(C)o1`, the RP-LC retention time came out at 625 s.

Compound `CCC(=O)N1CCc2c(C(=O)NCc3ccc4c(c3)OCO4)cccc21` gave an RP-LC retention time of 718 s.

For `CSc1ccc(-c2nc3cc(C)ccn3c2Nc2ccc(C)cc2)cc1`, the RP-LC retention time turned out to be 808 s.

Regarding `COc1ccc(N2CCN(S(=O)(=O)c3cn(C)nc3C)CC2)cc1`, the RP-LC retention time was determined as 719 s.

Compound `COc1ccc(CNC(=O)Cc2nnc(-c3ccc4ncccc4c3)o2)cc1OC` displayed an RP-LC retention time of 646 s.

`C=CCNC(=O)c1cn(-c2ccc(-c3nc(C(C)C)no3)cn2)cn1` had an RP-LC retention time of 824 s.

The compound `CC(CCc1ccccc1)NC(=O)C1CCN(Cc2cn(C)c3ccc(Cl)cc23)CC1` (centres undefined) came in with an RP-LC retention time of 790 s.

In the case of `CCOC(=O)C1CCCN(CC(O)COc2ccccc2Br)C1` (centres undefined), the RP-LC retention time came out at 590 s.

Take `COc1cc(C(=O)Nc2nc(-c3ccc4c(c3)NC(=O)C(C)O4)cs2)cc(OC)c1OC` (centres undefined): the RP-LC retention time turned out to be 903 s.

Take `CC(=O)c1ccc(N2CCN(C(=O)C3Oc4ccccc4NC3=O)CC2)cc1` (centres undefined): the RP-LC retention time came to 723 s.

For `Cc1ccc(CC(=O)NC2CCN(c3cc(C)cc(C)c3)C2=O)cc1` (centres undefined), the RP-LC retention time amounted to 893 s.

For `CCn1nccc1-c1cccc(-c2noc(-c3ccc(Br)o3)n2)c1`, the RP-LC retention time is 1180 s.

Compound `O=C(Nc1sc2c(c1C(c1ccccn1)N1CCN(c3ccccn3)CC1)CCCC2)c1ccco1` (centres undefined) had an RP-LC retention time of 775 s.

Compound `CN(C)C(=O)c1cccnc1OC1CCN(C(=O)c2ccc(Br)o2)C1` (centres undefined) had an RP-LC retention time of 663 s.

Regarding `CSc1ccc(-c2nc3cnccn3c2Nc2cccc(C(=O)N3CCOCC3)c2)cc1`, the RP-LC retention time was 704 s.

As for `COc1ccc(-n2c(SCc3nc(-c4ccc(C)cc4)no3)nnc2-c2ccncc2)cc1`, the RP-LC retention time was found to be 1000 s.

Compound `CCCCC(=O)NC1=C(C(=O)OC)SCC1` yielded an RP-LC retention time of 905 s.

With `CC(C)c1ccc(S(=O)(=O)N2CC=C(c3cn(C)c4ncccc34)CC2)cc1`, the RP-LC retention time amounted to 1130 s.

The compound `CN1CCN(c2nc(C(=O)NC3CCCC3)cs2)CC1` yielded an RP-LC retention time of 585 s.

`CCNc1nc(C)cc(N2CCN(C(=O)Nc3ccc(CC)cc3)CC2)n1` yielded an RP-LC retention time of 702 s.

The compound `O=C(Cn1c(=O)c2cccn2c2ccccc21)NCCCN1CCCC1` came in with an RP-LC retention time of 593 s.

Compound `Cc1ccc(S(=O)(=O)NCCc2cn(CC(C)C)c3ncccc23)cc1Cl` had an RP-LC retention time of 1070 s.

Consider `Cc1nccn1CC(=O)N1C[C@@H](C)[C@H](c2nc(-c3ccncc3)no2)C1`, for which the RP-LC retention time amounted to 569 s.

Turning to `Nc1sc(SCC(=O)NCc2ccc(F)cc2)nc1-c1ccccc1`, the RP-LC retention time is 796 s.

In the case of `O=C(NC1c2ccccc2-c2ccccc21)c1cccc([N+](=O)[O-])c1`, the RP-LC retention time is 961 s.

For the compound `Cc1nc(N2CCOCC2)c2c(C(=O)N3CCN(c4cccc(Cl)c4)CC3)c(C)oc2n1`, the RP-LC retention time came to 917 s.

Turning to `Cc1cc(NC(=O)C(=O)NCC(c2cn(C)c3ccccc23)N(C)C)no1` (centres undefined), the RP-LC retention time came out at 572 s.

The compound `O=C(NCc1csc(C2CCCN(C(=O)C3CCCCC3)C2)n1)C1CC1` (centres undefined) had an RP-LC retention time of 748 s.

`Cc1ccc2[nH]cc(CCN3CC(C(=O)NCCc4ccc(F)cc4)CC3=O)c2c1` (centres undefined) returned an RP-LC retention time of 821 s.

In turn, `CCOc1cc(-c2noc(-c3ncn4c3COC(c3ccc(OC)cc3)C4)n2)ccc1OC` (centres undefined) yielded an RP-LC retention time of 992 s.

`CCn1nccc1-c1cccc(-c2noc(-c3ccc(C)cc3)n2)c1` had an RP-LC retention time of 1310 s.

The compound `COC(=O)C(Cc1ccccc1)NC(=O)Nc1cccn2cnnc12` (centres undefined) showed an RP-LC retention time of 700 s.

The compound `CCCCCn1c(=O)c2ccccc2n(Cc2nc(-c3ccc(Cl)c(F)c3)no2)c1=O` had an RP-LC retention time of 659 s.

Turning to `CCCCOc1ccc(-c2ccc(=O)n(Cc3nc(-c4cc(OC)c(OC)c(OC)c4)no3)n2)cc1`, the RP-LC retention time is 1200 s.

`Cn1c(=O)c2c(ncn2CC2OCCO2)n(C)c1=O` had an RP-LC retention time of 606 s.

For the compound `O=C(Nc1cccs1)Nc1ccccc1NC(=O)c1ccccc1C(F)(F)F`, the RP-LC retention time turned out to be 805 s.

As for `CCS(=O)(=O)c1ccc(-c2cccc(NC(=O)c3ccc4ccccc4n3)c2)nn1`, the RP-LC retention time turned out to be 912 s.

In turn, `COc1ccc(C)cc1NC(=O)N1CCC(OC2CCN(S(C)(=O)=O)CC2)CC1` had an RP-LC retention time of 810 s.

For `O=C(Nc1ccccc1)N1CCc2nc(-c3ccccc3)ncc2C1`, the RP-LC retention time is 859 s.

Compound `Cc1ccc(CNC(=O)C2(C)Cn3cnc(C(=O)N4CCCCC4)c3C(=O)N2C2CC2)cc1` (centres undefined) gave an RP-LC retention time of 784 s.

`O=C(NC1CC1)c1ccc(CN2CCN(Cc3ccccc3)C(=O)C2=O)cc1` returned an RP-LC retention time of 1240 s.

Compound `CCOc1ccccc1-c1noc(Cn2c(=O)n(C(C)CC)c(=O)c3ccccc32)n1` (centres undefined) yielded an RP-LC retention time of 1140 s.

`Cc1ccc(-c2cc(C(=O)N3CCC(NC(=O)c4cccs4)CC3)[nH]n2)c(C)c1` showed an RP-LC retention time of 763 s.

Compound `COc1ccc(OC)c(NC(=O)C2CCN(C(=O)C3Sc4ccccc4NC3=O)CC2)c1` (centres undefined) gave an RP-LC retention time of 754 s.

Compound `O=C(NCc1ccccc1)N1CCN(Cc2nc3cc(Cl)ccc3o2)CC1` returned an RP-LC retention time of 717 s.

In turn, `CCn1cc(-c2nc(C(=O)Nc3ccc(F)c(C)c3)cs2)c2cccnc21` had an RP-LC retention time of 987 s.

Regarding `O=C(NCc1ccccn1)c1scc(-c2ccc(F)cc2)c1-n1cccc1`, the RP-LC retention time was 821 s.

`Cc1cnc2cc(Cl)ccc2c1SCC(=O)O` registered an RP-LC retention time of 816 s.

In turn, `O=S(=O)(c1ccc(Br)cc1)N1CCc2nc[nH]c2C1` had an RP-LC retention time of 615 s.

On to `O=C(CN1C(=O)CCCc2ccccc21)N1CCN(c2ccc(Cl)cc2)CC1`, for which the RP-LC retention time was 944 s.

On to `CCC(CC)CN1CCC(n2c(C)cnc2-c2ccncc2)C1` (centres undefined), for which the RP-LC retention time was 542 s.

`Cc1cc2nn(CC(=O)N3CCc4ccccc43)c(=O)n2c(Nc2ccc(F)cc2)n1` showed an RP-LC retention time of 1030 s.

The values are drawn from the METLIN SMRT retention time set (Domingo-Almenara et al. 2019).
